Assay results: article PMC8878717, “The Oxime Ethers with Heterocyclic, Alicyclic and Aromatic Moiety as Potential Anti-Cancer Agents” (Molecules, 2022)
In brackets after ≈: the same amount, converted by molar mass. Several values for one entry are separate records, joined by “and”; a condition that tells them apart may be missing. Equal values may be shown once. Read-outs that look alike come from different tables or passages of the source.

Experiments:
A549 cells = test: MTT cytotoxicity test on A549 cells; assay type: cell-based; settings: Homo sapiens
Procedure: (§1) Therefore, compounds showing the highest cytotoxicity (8, 9, 18, 22, 24–27) were further tested on normal human dermal fibroblasts (HDF), A549, Caco-2, and HeLa cells to compare their activity after 24 h and 72 h culture (Figure 5 and Figure 6).
(§2) 2-Acetylbenzofuran, 2-acetylbenzothiophene, 2-acetylthiophene, 2-acetylthiazole, cyclohexanone and acetophenone derivatives were used for in vitro cytotoxicity assays with cervical adenocarcinoma (HeLa), human dermal fibroblasts (HDF), lung epithelial carcinoma (A549), and intestinal epithelial carcinoma (Caco-2) cell lines. A549, Caco-2, and HeLa cells were obtained from Sigma-Aldrich (Germany), and HDF from Biokom (Poland). All cell lines were cultured according to the manufacturer’s protocol under sterile conditions in the presence of 4.9% CO2 at 37 °C. A549 cells were grown in F-12 medium containing 10% fetal bovine serum (FBS) and 1% penicillin/streptomycin. HDF cells were grown in DMEM (low glucose, with 2 mM glutamine) medium containing 10% fetal bovine serum (FBS) and 1% penicillin/streptomycin. Caco-2 cells were grown in EMEM medium containing 10% fetal bovine serum (FBS), 1% non-essential amino acids (NEAA) and 1% penicillin/streptomycin. HeLa cells were grown in DMEM (low glucose, with 2 mM glutamine) medium containing 10% fetal bovine serum (FBS) and 1% gentamycin. After thawing, cells were cultured until they reached sub-confluent state. The cells were then detached using 0.25% trypsin solution and seeded into 24-well or 96-well plates (3 × 10^3 cells per well) for further experiments. After 24 h growth, the tested compounds were added to the cell cultures in concentrations of 1, 10, 50, 100 and 250 μg mL^−1, respectively, and incubated for the next 24 h or 72 h. The MTT test, based on the ability to reduce 3-(4,5-dimethylthiazol 2-yl)-2,5-diphenyltetrazolium bromide (MTT) by mitochondrial dehydrogenases, was performed in triplicate to assess cell metabolic activity and viability. The plates were then read spectrophotometrically at a wavelength of 570 nm. The dose-dependence curves were charted directly on x-/y-axes, with the drug dosages on the x-axis and the cell viability (percentage of viable cells) on the y-axis.

HeLa cells [1] = test: MTT cytotoxicity test on HeLa cells; assay type: cell-based, human
Procedure: Cytotoxic properties of all compounds were determined by 3-(4,5-dimethylthiazol-2-yl)-2,5-diphenyltetrazolium bromide (MTT) test reflecting cell viability. Cytotoxicity screening of all 27 compounds—2-acetylbenzofuran oxime (6) and its oxime ethers (1–5), as well as: 2-acetylthiophene (7–17), cyclohexanone (18–20), acetophenone (21–23), thiazole (24–25), benzothiazole (26–27) oxime ethers—was performed in vitro on human cervical adenocarcinoma (HeLa) cells as the representatives of cancerous cells.
as §2

[2] = MTT cytotoxicity test on HDF cells; assay type: cell-based, human; settings: human, human dermal fibroblasts (HDF); 50 μg/mL, 24 h exposure
Procedure: as §1, §2

[3] = test system: human dermal fibroblasts (HDF); test: MTT cytotoxicity test on HDF cells; assay type: cell-based; settings: Homo sapiens, Fibroblast, HDF, MTT
Procedure: as §1, §2

Caco-2 cells = test: MTT cytotoxicity test on Caco-2 cells; assay type: cell-based, human
Procedure: as §1, §2

cells = test: LDH activity test (cell-membrane damage), cell lines not given; assay type: cell-based, human; settings: exposure at EC50 concentration, 24 h and 72 h; positive control 1% Triton X-100 = 100%
From the text: (§3) Summing up, only a few of the 27 tested derivatives could be promising as potential anti-cancer agents. Two of them—compound 22 and 27—would be a good starting point for future research. Therefore, we sought to compare their ability to induce necrotic cell death. Since necrotic cell death relies on the disruption of cell membrane, it results in the extracellular release of cytoplasmic enzymes such as lactate dehydrogenase (LDH). Thus, we compared LDH activity in the extracellular environment (culture media).
(§4) Additionally, the lactate dehydrogenase (LDH) activity test reflecting cell-membrane damage was performed for cells exposed to selected tested compounds. LDH activity was determined in the culture medium by measuring the decrease in NADH (nicotinamide adenine dinucleotide, reduced disodium salt). The decrease in the amount of NADH was directly correlated to the increase in the number of damaged cells. To measure LDH activity, the culture medium was collected from the wells with cells exposed to concentrations equal to the EC50 values of tested compounds after short- (24 h), and long-time (72 h) exposure. The LDH activity test was performed as follows: 25 μL of NADH (2.5 mg/mL) and 25 μL of sodium pyruvate (2.5 mg/mL) were added to 150 μL of the collected culture medium. Absorbance at 340 nm was spectrophotometrically measured. […]

HeLa cells [4] = test: LDH activity test (cell-membrane damage), HeLa cells; assay type: cell-based; settings: exposure at EC50 concentration
From the text: as §3, §4

[5] = A549, 24 h, MTT, read-out: EC50 Value A549 24 h
[6] = A549, 72 h, MTT, read-out: EC50 Value A549 72 h
[7] = Homo sapiens, HeLa, 24 h, HeLa, 24 h culture, MTT, read-out: EC50 for HeLa Cells
[8] = Homo sapiens, HeLa, 72 h, HeLa, 72 h, MTT, read-out: EC50 Value HeLa 72 h
[9] = 24 h, read-out: EC50 Value HDF 24 h
[10] = 72 h, read-out: EC50 Value HDF 72 h
[11] = Homo sapiens, Caco-2, 24 h, MTT, read-out: EC50 Value Caco-2 24 h
[12] = Homo sapiens, Caco-2, 72 h, MTT, read-out: EC50 Value Caco-2 72 h

| Structure (SMILES) | EC50 (A549 cells; [5]) | EC50 (A549 cells; [6]) | EC50 (A549 cells; A549, 72 h, read-out: EC50 A549) | viability at 50 µg/mL (A549 cells; A549, 50 μg/mL, 24 h exposure) | viability of HeLa cells (of control) (HeLa cells [1]; 100–250 μg/mL, MTT) | EC50 (HeLa cells [1]; [7]) | EC50 (HeLa cells [1]; [8]) | EC50 (HeLa cells [1]; Homo sapiens, HeLa, 72 h, HeLa, 72 h, read-out: EC50 HeLa) | viability at 50 µg/mL (HeLa cells [1]; Homo sapiens, HeLa, 50 μg/mL, 24 h exposure) | viability at 24 h, 50 μg/mL [2] | EC50 [3, 9] | EC50 [3, 10] | EC50 (Caco-2 cells; [11]) | EC50 (Caco-2 cells; [12]) | EC50 (Caco-2 cells; Homo sapiens, Caco-2, 72 h, read-out: EC50 Caco-2) | viability at 50 µg/mL (Caco-2 cells; Homo sapiens, Caco-2, 50 μg/mL, 24 h exposure) | increase in LDH activity outside the cells (of positive control) (cells) | membrane damage and release of LDH (HeLa cells [4]) | EC50 Value HeLa 72 h (HeLa cells [1]; HeLa, 72 h, MTT) | EC50 Value Caco-2 72 h (Caco-2 cells; Caco-2, 72 h, MTT) |
| --- | --- | --- | --- | --- | --- | --- | --- | --- | --- | --- | --- | --- | --- | --- | --- | --- | --- | --- | --- | --- |
| C/C(=N\OCCN1CCOCC1)c1ccccc1 [Compound 22, (E)-acetophenone O-2-morpholinoethyl oxime] | 10.2 µg/mL and 40 µM | 30 µM | ~30 µM | ~20% | below 20% | 23.1 µg/mL and 90 µM | 30 µM | ~30 µM | ~20% | ~20% | 27.3 µg/mL and 110 µM | 8.04 µg/mL and 30 µM | 9.45 µg/mL and 40 µM | 30 µM | ~30 µM | ~20% | ≤ 20% |  |  |  |
| COc1ccc(CO/N=C(\C)c2cc3ccccc3s2)cc1 [Compound 27, (E)-1-(benzothiophene-2-yl)ethanone O-4-methoxybenzyl oxime] | > 250 µg/mL and > 800 µM | 143 µg/mL and 460 µM |  |  |  | 93.8 µg/mL and 300 µM | 28 µg/mL and 90 µM |  |  |  | 150 µg/mL and 480 µM | 140 µg/mL and 450 µM | 122 µg/mL and 390 µM | 116 µg/mL and 370 µM |  |  |  | extreme membrane damage and release of LDH | 27.9 µg/mL (≈ 89.6 µM) | 116.47 µg/mL (≈ 374 µM) |
